ChEMBL document CHEMBL1138268, “Synthesis and evaluation of cis-1-[4-(hydroxymethyl)-2-cyclopenten-1-yl]-5-[(124)I]iodouracil: a new potential PET imaging agent for HSV1-tk expression” (J Med Chem, 2007)

Tests used:
[1] = Cytotoxicity against MCA cells; format: cell-based
[2] = Cytotoxicity against MCA-TK cells; format: cell-based
[3] = Metabolic stability in mouse liver microsomes after 30 min; format: ADME, Microsome
[4] = Metabolic stability in mouse serum after 6 hrs; format: ADME, cell-free

Row | SMILES | IC50 [1] [µM] | IC50 [2] [µM] | half-life [3] [h] | half-life [4] [h]
1 | Nc1nc2c(ncn2COC(CO)CO)c(=O)[nH]1 [GANCICLOVIR] | 270 | 0.15 | – | –
2 | O=c1[nH]c(=O)n([C@H]2C[C@H](O)[C@@H](CO)O2)cc1I [IDOXURIDINE] | – | – | 1.24 | 22.6
